Earlier results, collected in patent publication US20150087671A1, “LOW BURST SUSTAINED RELEASE LIPOPHILIC AND BIOLOGIC AGENT COMPOSITIONS” (Micell Technologies, Inc., priority 2012, published 2015).
pIC50: −log10 of the molar value. One block for each compound: values may come before it.

Legend:
[1] = target: mTOR (Homo sapiens, UniProt P42345)
[2] = test system: PI3K/mTOR; settings: read-out: IC50, dual PI3K/mTOR inhibitor (target not specified further)
[3] = test system: phosphorylation of AKT T308
[4] = test system: PDGFR
[5] = test system: NCI-60 cell lines panel

- pIC50 [2]: 9.00
Structure (SMILES): COc1ccc(-c2ccc3ncc4c(c3c2)n(-c2ccc(N3CCNCC3)c(C(F)(F)F)c2)c(=O)n4C)cn1 [NVP-BGT226]

- pIC50 [3]: 8.12
Structure (SMILES): COc1ccc(-c2cc3c(C)nc(N)nc3n([C@H]3CC[C@H](OCCO)CC3)c2=O)cn1 [PF-04691502]

- bioavailability (Rapamune oral tablets or solution): < 14%
- blood concentrations (once daily oral dosing, immunosuppressive dose 2 or 5 mg daily): 6 to 50 ng/mL
Structure (SMILES): CO[C@H]1C[C@@H]2CC[C@@H](C)[C@@](O)(O2)C(=O)C(=O)N2CCCC[C@H]2C(=O)O[C@H]([C@H](C)C[C@@H]2CC[C@@H](O)[C@H](OC)C2)CC(=O)[C@H](C)/C=C(\C)[C@@H](O)[C@@H](OC)C(=O)[C@H](C)C[C@H](C)/C=C/C=C/C=C/1C [Rapamycin, rapamycin]

The next lines start with the compound.

Structure (SMILES): CO[C@H]1C[C@@H]2CC[C@@H](C)[C@@](O)(O2)C(=O)C(=O)N2CCCC[C@H]2C(=O)O[C@H]([C@H](C)C[C@@H]2CC[C@@H](OCCO)[C@H](OC)C2)CC(=O)[C@H](C)/C=C(\C)[C@@H](O)[C@@H](OC)C(=O)[C@H](C)C[C@H](C)/C=C/C=C/C=C/1C [Everolimus, 40-O-(2-Hydroxyethyl)rapamycin]
- pIC50 [1]: 9.20

Structure (SMILES): Nc1ncnc2c1c(-c1cnc3[nH]ccc3c1)nn2C1CCCC1 [PP121]
- pIC50 [4]: 8.70

Structure (SMILES): COc1ccc(COc2cc3oc(=O)c4cc(C(C)O)ccc4c3cc2OC)cc1 (stereo not shown) [Palomid 529]
- GI50 [5]: < 35000 nM

Structure (SMILES): c1cncc(CN2CCC(n3ncc4c(N5CCOCC5)nc(-c5ccc6[nH]ccc6c5)nc43)CC2)c1 [WAY-600]
- pIC50 [1]: 8.05

Structure (SMILES): COC(=O)Nc1ccc(-c2nc(N3CCOCC3)c3cnn(C4CCN(C(=O)OC)CC4)c3n2)cc1 [WYE-354]
- pIC50 [1]: 8.30

Structure (SMILES): CNC(=O)Nc1ccc(-c2nc(N3CC4CCC(C3)O4)c3cnn(C4CCC5(CC4)OCCO5)c3n2)cc1 [WYE-125132]
- pIC50 [1]: 9.72
